# Laboratory results as given in patent publication US20240336568A1, “SELECTIVE PHD1 INHIBITOR COMPOUNDS, COMPOSITIONS, AND METHODS OF USE” (Akebia Therapeutics, Inc., priority 2021, published 2024).
# Test system: full-length human prolyl-4-hydroxylase domain (PHD) enzymes, PHD1 and PHD2
# Experiment: TR-FRET assay, selectivity of compounds for PHD1 over PHD2 (ratio of Kis calculated from IC50s)
# Assay type: biochemical
# Conditions: ratio of Kis (PHD2 Ki/PHD1 Ki), Kis calculated from TR-FRET IC50s by Cheng Prussoff equation; 1 uM 2-OG
# Source text: Time-resolved fluorescence resonance energy transfer (TR-FRET) assay was utilized to determine the enzymatic half maximal inhibitory concentration (IC50) value of PHD inhibitors against the full-length human prolyl-4-hydroxylase domain (PHD) enzymes, PHD1 and PHD2. The TR-FRET assay was developed based on the specific binding of hydroxylated HIF-la peptide with the complex formed by VHL, EloB and EloC (VBC), to generate a fluorescent signal. Terbium (Tb)-Donor (monoclonal antibody anti-6His-Tb-cryptate Gold) and D2-acceptor (streptavidin [SA]-D2) of TR-FRET are linked to the VBC complex and to HIF-1α peptide, respectively. The VBC complex binds specifically to the HIF-1α peptide when it is hydroxylated, allowing energy transfer from TR-FRET donor to acceptor (FIG. 1).
# TR-FRET Reagents. Monoclonal antibody anti-6His-Tb-cryptate Gold (catalog #61HI2TLA) and streptavidin (SA)-D2 (catalog #610SADLA) were purchased from CisBio International (Bedford, MA, USA).
# N-terminus biotinylated HIF-1α C35 synthetic peptide representing amino acids 547 to 581 and including the proline 564 PHD2 hydroxylation site was purchased from California Peptide Research (Salt Lake City, UT, USA).
# VBC Complex. His-tagged recombinant VHL protein, EloB, EloC complex (His-VBC) was supplied by Axxam (Milan, Italy). Recombinant human VHL (National Center for Biotechnology Information [NCBI] accession number NP_00542.1) contained a His tag at the C-terminus of amino acids 55 to 213 and is referred to as VHL-His. VHL-His was co-expressed in E. coli with full-length human EloB (NCBI accession number Q15370.1) and full-length human EloC (NCBI accession number Q15369.1) and purified by affinity chromatography on a nickel-nitrilotriacetic acid (Ni-NTA) column as the His-VBC complex. Purity (˜80%) was assessed by sodium dodecyl sulfate polyacrylamide gel electrophoresis (SDS-PAGE).
# PHD1. Recombinant human PHD1 protein (catalog #81064, Lot #24717001) was purchased from Active Motif (Carlsbad, CA, USA). PHD1 was expressed in a baculovirus expression system as the full-length protein (NCBI accession number NP_542770.2) with an N-terminal FLAG tag (molecular weight 44.9 kDa). Purity (>90%) was assessed by SDS-PAGE.
# PHD2. The full-length human PHD2 enzyme was produced with a baculovirus infected insect cell (BIIC) expression system by Beryllium (Bedford, MA, USA). The PHD2 construct contained amino acids 1 to 426 of PHD2 (UniProt Knowledgebase[UniProtKB]/Swiss-Prot accession number Q9GZT9.1), and a His tag and a Tobacco Etch Virus (TEV) protease cleavage site at the N-terminus. The construct was expressed in Sf9 insect cells, purified by Ni-NTA column and digested with TEV protease to remove the His tag.
# Compounds were preincubated with PHD enzyme in a 10 μL reaction volume in white 384-well Optiplate microplates (catalog #6007290, Perkin Elmer, Waltham, MA, USA). For this, 5 μL compound was serially diluted with dilution buffer (50 mM HEPES [4-(2-hydroxyethyl)-1-piperazineethanesulfonic acid] pH 7.5, 50 mM sodium chloride [NaCl], 0.01% Tween-20, 0.01% purified bovine serum albumin [BSA]) and mixed with 5 μL PHD enzyme mix prepared as a 4× concentrate in the dilution buffer containing PHD enzyme (60 nM PHD1, 20 nM PHD2, 140 nM PHD3), 40 μM ferrous ammonium sulfate (FAS), 4 mM sodium (Na) ascorbate. The plates were incubated for 30 minutes at room temperature without rotation.
# Five microliters of the VBC/anti-6His-Tb-cryptate Gold mix prepared as a 4× concentrate in dilution buffer containing 20 nM His-VBC, 1.32 nM monoclonal antibody anti-6His-Tb-cryptate Gold was then added. This step was followed immediately by the addition of 5 μL of the HIF-1α C35 substrate mix prepared as a 4× concentrate in the dilution buffer containing 120 nM biotin-labeled HIF-1α C35, 132 nM SA-D2, 4 μM 2-oxoglutarate (2-OG) to reach a final reaction volume of 20 μL. […]
row,Structure (SMILES),Selectivity of PHD1 over PHD2 [fold]
1,"CC(C)(CNC(=O)c1ncc(-c2ccc3cc(OCCc4ccc(Cl)cc4)ccc3c2)cc1O)C(=O)O [compound 28, 3-(5-(6-(4-chlorophenethoxy)naphthalen-2-yl)-3-hydroxypicolinamido)-2,2-dimethylpropanoic acid]",~9
2,"CC(C)(CNC(=O)c1ncc(-c2cccc(N)c2)cc1O)C(=O)O [compound 29, 3-(5-(3-aminophenyl)-3-hydroxypicolinamido)-2,2-dimethylpropanoic acid]",~20
3,"CC(C)(CNC(=O)c1ncc(-c2cccc(NCc3ccc(Cl)cc3)c2)cc1O)C(=O)O [compound 30, 3-(5-(3-((4-Chlorobenzyl)amino)phenyl)-3-hydroxypicolinamido)-2,2-dimethylpropanoic acid]",~223
4,"CC(C)(CNC(=O)c1ncc(-c2cccc(OCCc3ccc(Cl)cc3)c2)cc1O)C(=O)O [compound 31, 3-(5-(3-(4-chlorophenethoxy)phenyl)-3-hydroxypicolinamido)-2,2-dimethylpropanoic acid]",~40
5,"CC(C)(C)OC(=O)N1CCC(n2cc(-c3cnc(C(=O)NCC(C)(C)C(=O)O)c(O)c3)cn2)CC1 [compound 32, 3-(5-(1-(1-(tert-butoxycarbonyl)piperidin-4-yl)-1H-pyrazol-4-yl)-3-hydroxypicolinamido)-2,2-dimethylpropanoic acid]",~444
6,"CC(C)(C)OC(=O)N1CCc2sc(-c3cnc(C(=O)NCC(C)(C)C(=O)O)c(O)c3)cc2C1 [compound 33, 3-(5-(5-(tert-butoxycarbonyl)-4,5,6,7-tetrahydrothieno[3,2-c]pyridin-2-yl)-3-hydroxypicolinamido)-2,2-dimethylpropanoic acid]",~1605
7,"CC(C)(CNC(=O)c1ncc(-c2cnn(-c3ccc(Cl)cc3Cl)c2)cc1O)C(=O)O [compound 34, 3-(5-(1-(2,4-dichlorophenyl)-1H-pyrazol-4-yl)-3-hydroxypicolinamido)-2,2-dimethylpropanoic acid]",~24
8,"CC(C)(CNC(=O)c1ncc(-c2cc3nc(Cl)ccc3s2)cc1O)C(=O)O [compound 35, 3-(5-(5-chlorothieno[3,2-b]pyridin-2-yl)-3-hydroxypicolinamido)-2,2-dimethylpropanoic acid]",~271
9,"CC(C)(CNC(=O)c1ncc(-c2ccc(S(=O)(=O)N3CCCC3)cc2CO)cc1O)C(=O)O [compound 36, 3-(3-hydroxy-5-(2-(hydroxymethyl)-4-(pyrrolidin-1-ylsulfonyl)phenyl)picolinamido)-2,2-dimethylpropanoic acid]",~113
10,"CC(C)(CNC(=O)c1ncc(-c2cnn(-c3cccc(C(F)(F)F)c3)c2)cc1O)C(=O)O [compound 37, 3-(3-hydroxy-5-(1-(3-(trifluoromethyl)phenyl)-1H-pyrazol-4-yl)picolinamido)-2,2-dimethylpropanoic acid]",~25
11,"CC(C)(CNC(=O)c1ncc(-c2cnn3c2CCCC3)cc1O)C(=O)O [compound 38, 3-(3-hydroxy-5-(4,5,6,7-tetrahydropyrazolo[1,5-a]pyridin-3-yl)picolinamido)-2,2-dimethylpropanoic acid]",~49
12,"Cc1ccnc2ccc(-c3cnc(C(=O)NCC(C)(C)C(=O)O)c(O)c3)cc12 [compound 39, 3-(3-hydroxy-5-(4-methylquinolin-6-yl)picolinamido)-2,2-dimethylpropanoic acid]",~230
13,"Cc1cccc2cc(-c3cnc(C(=O)NCC(C)(C)C(=O)O)c(O)c3)cnc12 [compound 40, 3-(3-hydroxy-5-(8-methylquinolin-3-yl)picolinamido)-2,2-dimethylpropanoic acid]",~20
14,"COc1ccc2cc(-c3cnc(C(=O)NCC(C)(C)C(=O)O)c(O)c3)ccc2c1 [compound 41, 3-(3-hydroxy-5-(6-methoxynaphthalen-2-yl)picolinamido)-2,2-dimethylpropanoic acid]",~1960
15,"CC(C)(CNC(=O)c1ncc(-c2ccc3cnccc3c2)cc1O)C(=O)O [compound 42, 3-(3-hydroxy-5-(isoquinolin-6-yl)picolinamido)-2,2-dimethylpropanoic acid]",~197
16,"CC(C)(CNC(=O)c1ncc(-c2ccc3ccncc3c2)cc1O)C(=O)O [compound 43, 3-(3-hydroxy-5-(isoquinolin-7-yl)picolinamido)-2,2-dimethylpropanoic acid]",~1875
17,"Cc1ccc2ccc(-c3cnc(C(=O)NCC(C)(C)C(=O)O)c(O)c3)c(F)c2n1 [compound 44, 3-(5-(8-fluoro-2-methylquinolin-7-yl)-3-hydroxypicolinamido)-2,2-dimethylpropanoic acid]",~1833
18,"Cc1ccc2cc(-c3cnc(C(=O)NCC(C)(C)C(=O)O)c(O)c3)ccc2n1 [compound 45, 3-(3-hydroxy-5-(2-methylquinolin-6-yl)picolinamido)-2,2-dimethylpropanoic acid]",~3740
19,"CC(C)(CNC(=O)c1ncc(-c2ccc3nccnc3c2)cc1O)C(=O)O [compound 46, 3-(3-hydroxy-5-(quinoxalin-6-yl)picolinamido)-2,2-dimethylpropanoic acid]",~124
20,"CC(C)(CNC(=O)c1ncc(-c2cn(CCCc3ccc(Cl)cc3)nn2)cc1O)C(=O)O [compound 47, 3-(5-(1-(3-(4-chlorophenyl)propyl)-1H-1,2,3-triazol-4-yl)-3-hydroxypicolinamido)-2,2-dimethylpropanoic acid]",~10
21,"CC(CNC(=O)c1ncc(-c2ccc3ccccc3c2)cc1O)C(=O)O (centres unmarked) [compound 48, 3-(3-Hydroxy-5-(naphthalen-2-yl)picolinamido)-2-methylpropanoic acid]",~167
22,"CC(CNC(=O)c1ncc(-c2cccc(Cl)c2)cc1O)C(=O)O (centres unmarked) [compound 49, 3-(5-(3-chlorophenyl)-3-hydroxypicolinamido)-2-methylpropanoic acid]",~12
23,"CC(CNC(=O)c1ncc(-c2cnn(-c3ccccc3)c2)cc1O)C(=O)O (centres unmarked) [compound 50, 3-(3-hydroxy-5-(1-phenyl-1H-pyrazol-4-yl)picolinamido)-2-methylpropanoic acid]",~50
24,"CC(C)(CNC(=O)c1nc(C#N)c(-c2cccc(Cl)c2)cc1O)C(=O)O [compound 51, 3-(5-(3-chlorophenyl)-6-cyano-3-hydroxypicolinamido)-2,2-dimethylpropanoic acid]",~4
25,"CC(C)(CNC(=O)c1ncc(-c2cccc(NCCc3ccc(Cl)cc3)c2)cc1O)C(=O)O [compound 52, 3-(5-(3-((4-Chlorophenethyl)amino)phenyl)-3-hydroxypicolinamido)-2,2-dimethylpropanoic acid]",~31
26,"CC(C)(CNC(=O)c1ncc(-c2cnc(-c3ccccc3)s2)cc1O)C(=O)O [compound 53, 3-(3-hydroxy-5-(2-phenylthiazol-5-yl)picolinamido)-2,2-dimethylpropanoic acid]",~1215
